The text below walks through data of US20120015957A1, “PIPERAZINYL DERIVATIVES USEFUL AS MODULATORS OF THE NEUROPEPTIDE Y2 RECEPTOR” (priority 2007, published 2012).

Where two headings read alike, the source gives them in different places.

For orientation: IC50 means the concentration that inhibits the measured activity by half.

Assay [1] deals with T1, NPY Y2 receptor (Homo sapiens, UniProt P49146).
T1 construct: endogenous in cells; host or cells: KAN-Ts cells (membrane preparation)
T1 sequence (P49146 1-381): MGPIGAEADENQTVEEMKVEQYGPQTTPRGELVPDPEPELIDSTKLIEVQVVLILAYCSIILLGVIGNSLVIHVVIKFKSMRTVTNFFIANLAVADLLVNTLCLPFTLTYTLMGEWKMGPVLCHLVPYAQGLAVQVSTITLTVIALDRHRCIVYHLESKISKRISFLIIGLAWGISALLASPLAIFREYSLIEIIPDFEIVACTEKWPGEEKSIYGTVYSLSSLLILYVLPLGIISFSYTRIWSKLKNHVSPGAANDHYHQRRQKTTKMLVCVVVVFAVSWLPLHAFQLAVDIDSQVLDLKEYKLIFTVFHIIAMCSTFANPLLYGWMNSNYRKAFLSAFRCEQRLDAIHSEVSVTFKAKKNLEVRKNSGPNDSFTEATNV
As to the kind of experiment: Neuropeptide Y2 pKB assay (FLIPR, KAN-Ts cells stably expressing chimeric G proteins). The following applies: apparent pKB, FLIPR calcium, KAN-Ts cells with chimeric G proteins; modified Cheng-Prusoff correction. It counts as cell-based. The procedure: The assay was performed using the fluorimetric imaging plate reader (FLIPR) format as described in Dautzenberg, F. M., Biochemical Pharmacology 2005, 69, 1493.
KAN-Ts cells stably expressing chimeric G proteins were seeded at a density of 100,000 cells into poly-d-lysine coated 384-well blackwall, clear-bottom microtiter plates (Corning, N.Y.). One day later, the medium was removed and 50 μl loading medium DMEM high glucose, without serum, supplemented with 10 mM HEPES-acid, 0.1% BSA, 5 mM probenecid and 2 μM Fluo-3AM was added. Cells were loaded for 1 h at 37° C., washed twice with 50 μl assay buffer (5 mM HEPES-acid, 140 mM NaCl, 1 mM MgCl2, 5 mM KCl, 10 mM glucose) and then 30 μl assay buffer was added. Cells were further pre-incubated at room temperature before adding agonists or agonists plus antagonists in 20 μl assay buffer and then measured on a T-channel fluorometric imaging plate reader (FLIPR, Molecular Devices, Sunnyvale, Calif.). Antagonistic potency values were converted to apparent pKB values using a modified Cheng-Prusoff correction. Apparent pKB was calculated as pKB=−log IC50/1+[conc agonist/EC50].

The target of assay [2] is T1, NPY Y2 receptor. Briefly: Neuropeptide Y2 radioligand binding assay ([125I]PYY, KAN-Ts cell membranes). The method in brief:
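Membranes from KAN-Ts cells (endogenous Y2) incubated 1 h at rt with 80 pM [125I]PYY ± compound in HEPES/NaCl binding buffer, then filtered and counted. Nonspecific binding defined with […]. IC50 from sigmoidal fits; apparent K = IC50/(1+C/KD).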

Setting [3] is: membranes of KAN-Ts cells endogenously expressing Y2 receptors, [125I]PYY 80 pM, 1 h at rt, read-out: IC50 (μM), NPY Y2 binding.

For `CCN(CC)C(=O)C(c1ccccc1)N1CCN(c2ccc(-c3noc(C)n3)cc2F)CC1` (stereo not shown) [Compound 67, N,N-Diethyl-2-{4-[2-fluoro-4-(5-methyl-[1,2,4]oxadiazol-3-yl)-phenyl]-piperazin-1-yl}-2-phenyl-acetamide], the Kb at NPY Y2 receptor [1] was 200 nM. Further, the IC50 at NPY Y2 receptor [2] (setting [3]) is 0.18 µM. For `CCN(CC)C(=O)C(c1ccccc1)N1CCN(c2ccc(-c3noc(C(C)C)n3)cc2F)CC1` (stereo not shown) [Compound 69, N,N-Diethyl-2-{4-[2-fluoro-4-(5-isopropyl-[1,2,4]oxadiazol-3-yl)-phenyl]-piperazin-1-yl}-2-phenyl-acetamide], in that order: 50.1 nM and 0.13 µM. Take `CCN(CC)C(=O)C(c1ccccc1)N1CCN(c2ccc(-c3nc(C)no3)cc2F)CC1` (stereo not shown) [Compound 119, N,N-Diethyl-2-{4-[2-fluoro-4-(3-methyl-[1,2,4]oxadiazol-5-yl)-phenyl]-piperazin-1-yl}-2-phenyl-acetamide]: on NPY Y2 receptor [1], the Kb was 89.1 nM. Besides, the half-inhibitory concentration (IC50) on NPY Y2 receptor [2] (setting [3]) turned out to be 0.085 µM. Take `CCN(CC)C(=O)C(c1ccccc1)N1CCN(c2ccc(-c3nc(C)no3)cc2Br)CC1` (stereo not shown) [Compound 203, 2-{4-[2-Bromo-4-(3-methyl-[1,2,4]oxadiazol-5-yl)-phenyl]-piperazin-1-yl}-N,N-diethyl-2-phenyl-acetamide]: the Kb at NPY Y2 receptor [1] was 200 nM. On NPY Y2 receptor [2] (setting [3]), the IC50 stood at 0.15 µM.

For `CCN(CC)C(=O)C(c1ccccc1)N1CCN(c2ccc(-c3nc(C)no3)cc2C#N)CC1` (stereo not shown) [Compound 217, 2-{4-[2-Cyano-4-(3-methyl-[1,2,4]oxadiazol-5-yl)-phenyl]-piperazin-1-yl}-N,N-diethyl-2-phenyl-acetamide], the Kb on NPY Y2 receptor [1] was 23.4 nM. Moreover, at NPY Y2 receptor [2] (setting [3]), the IC50 amounted to 0.023 µM. For `CCN(CC)C(=O)C(c1ccccc1)N1CCN(c2ccc(-c3nc(C(C)C)no3)cc2C#N)CC1` (stereo not shown) [Compound 218, 2-{4-[2-Cyano-4-(3-isopropyl-[1,2,4]oxadiazol-5-yl)-phenyl]-piperazin-1-yl}-N,N-diethyl-2-phenyl-acetamide], in that order: 12.6 nM and 0.011 µM. In the case of `CCN(CC)C(=O)C(c1ccccc1OC)N1CCN(c2ccc(-c3nc(C)no3)cc2C#N)CC1` (stereo not shown) [Compound 251, 2-{4-[2-Cyano-4-(3-methyl-[1,2,4]oxadiazol-5-yl)-phenyl]-piperazin-1-yl}-N,N-diethyl-2-(2-methoxy-phenyl)-acetamide], the 50% inhibitory concentration (IC50) at NPY Y2 receptor [2] (setting [3]) was determined as 0.49 µM. Still for that read-out and setting: with `CCN(CC)C(=O)C(c1cccs1)N1CCN(c2ccc(-c3nc(C)no3)cc2C#N)CC1` (stereo not shown) [Compound 252, 2-{4-[2-Cyano-4-(3-methyl-[1,2,4]oxadiazol-5-yl)-phenyl]-piperazin-1-yl}-N,N-diethyl-2-thiophen-2-yl-acetamide] the figure was 0.096 µM; with `CCN(CC)C(=O)C(c1ccccc1)N1CCN(c2ccc(-c3ccccc3C#N)cc2F)CC1` (stereo not shown) [Compound 253, 2-[4-(2′-Cyano-3-fluoro-biphenyl-4-yl)-piperazin-1-yl]-N,N-diethyl-2-phenyl-acetamide], 8.3 µM. The same measure, in the same setting: to `CCN(CC)C(=O)C(c1ccccc1)N1CCN(c2ccc(-c3ccccc3C)cc2F)CC1` (stereo not shown) [Compound 254, N,N-Diethyl-2-[4-(3-fluoro-2′-methyl-biphenyl-4-yl)-piperazin-1-yl]-2-phenyl-acetamide] belongs 1 µM.

For `CCN(CC)C(=O)C(c1ccccc1)N1CCN(c2ccc(-c3ccccc3OC)cc2C#N)CC1` (stereo not shown) [Compound 255, 2-[4-(3-Cyano-2′-methoxy-biphenyl-4-yl)-piperazin-1-yl]-N,N-diethyl-2-phenyl-acetamide], the IC50 at NPY Y2 receptor [2] (setting [3]) is 0.03 µM. On the same count and under the same terms, to `CCN(CC)C(=O)C(c1ccccc1)N1CCN(c2ccc(-c3nc(C(C)C)no3)cc2C=O)CC1` (stereo not shown) [Compound 256, N,N-Diethyl-2-{4-[2-formyl-4-(3-isopropyl-[1,2,4]oxadiazol-5-yl)-phenyl]-piperazin-1-yl}-2-phenyl-acetamide] belongs 0.17 µM; to `CCN(CC)C(=O)C(c1ccccc1)N1CCN(c2ccc(-c3nc(C(C)C)no3)cc2CO)CC1` (stereo not shown) [Compound 257, N,N-Diethyl-2-{4-[2-hydroxymethyl-4-(3-isopropyl-[1,2,4]oxadiazol-5-yl)-phenyl]-piperazin-1-yl}-2-phenyl-acetamide], 0.34 µM. For `CCN(CC)C(=O)C(c1ccccc1)N1CCN(c2ccc(-c3nc(C(C)C)no3)cc2CNC)CC1` (stereo not shown) [Compound 258, N,N-Diethyl-2-{4-[4-(3-isopropyl-[1,2,4]oxadiazol-5-yl)-2-methylaminomethyl-phenyl]-piperazin-1-yl}-2-phenyl-acetamide], at NPY Y2 receptor [2] (setting [3]), the IC50 worked out at 1.8 µM. For the molecule `CCN(CC)C(=O)C(c1ccccc1)N1CCN(c2ccc(-c3nc(C(C)C)no3)cc2CN(C)C)CC1` (stereo not shown) [Compound 259, 2-{4-[2-Dimethylaminomethyl-4-(3-isopropyl-[1,2,4]oxadiazol-5-yl)-phenyl]-piperazin-1-yl}-N,N-diethyl-2-phenyl-acetamide], at NPY Y2 receptor [2] (setting [3]), the IC50 came to 2.4 µM. `CCN(CC)C(=O)C(c1ccccc1)N1CCN(c2ccc(-c3nc(C(C)C)no3)cc2COC)CC1` (stereo not shown) [Compound 260, N,N-Diethyl-2-{4-[4-(3-isopropyl-[1,2,4]oxadiazol-5-yl)-2-methoxymethyl-phenyl]-piperazin-1-yl}-2-phenyl-acetamide]: the IC50 at NPY Y2 receptor [2] (setting [3]) was found to be 0.98 µM.

On to `CCNC(=O)C(c1ccccc1)N1CCN(c2ccc(-c3nc(C)no3)cc2C#N)CC1` (stereo not shown) [Compound 261, 2-{4-[2-Cyano-4-(3-methyl-[1,2,4]oxadiazol-5-yl)-phenyl]-piperazin-1-yl}-N-ethyl-2-phenyl-acetamide], for which, on NPY Y2 receptor [2] (setting [3]), the IC50 was determined as 0.41 µM.

For the molecule `CCN(CC)C(=O)C(c1ccc(F)cc1)N1CCN(c2ccc(-c3nc(C)no3)cc2C#N)CC1` (stereo not shown) [Compound 262, 2-{4-[2-Cyano-4-(3-methyl-[1,2,4]oxadiazol-5-yl)-phenyl]-piperazin-1-yl}-N,N-diethyl-2-(4-fluoro-phenyl)-acetamide], the concentration for half-maximal inhibition (IC50) at NPY Y2 receptor [2] (setting [3]) stood at 0.098 µM.

For `CCN(CC)C(=O)C(c1cccc(F)c1)N1CCN(c2ccc(-c3nc(C)no3)cc2C#N)CC1` (stereo not shown) [Compound 263, 2-{4-[2-Cyano-4-(3-methyl-[1,2,4]oxadiazol-5-yl)-phenyl]-piperazin-1-yl}-N,N-diethyl-2-(3-fluoro-phenyl)-acetamide], on NPY Y2 receptor [1], the Kb is 20 nM. Also, the half-inhibitory concentration (IC50) at NPY Y2 receptor [2] (setting [3]) was 0.035 µM. Turning to `CCNC(=O)C(c1ccccc1)N1CCN(c2ccc(-c3nc(C(C)C)no3)cc2C#N)CC1` (stereo not shown) [Compound 270], the half-maximal inhibitory concentration (IC50) at NPY Y2 receptor [2] was 0.062 µM. For the molecule `CCN(CC)C(=O)C(c1ccccc1)N1CCN(c2ccc(-c3nc(C)ns3)cc2F)CC1` (stereo not shown) [Compound 271, N,N-Diethyl-2-{4-[2-fluoro-4-(3-methyl-[1,2,4]thiadiazol-5-yl)-phenyl]-piperazin-1-yl}-2-phenyl-acetamide], the IC50 at NPY Y2 receptor [2] (setting [3]) was 0.11 µM.
